In PubChem BioAssay AID196 (DTP/NCI, 2004):
Values joined by “and” are separate entries in the source; they are usually repeats but may differ in a detail not shown here. Identical values can stand only once. Inconclusive results and toxic doses are left out.

System: BDF1 mice, intracerebral B16 melanoma, median survival T/C
Assay: NCI In Vivo Anticancer Drug Screen. Data for tumor model B16 Melanoma (intracerebral) in B6D2F1 (BDF1) mice
Conditions: endpoint: median survival time, higher = longer survival
Description: The antitumor activity of compounds was measured in mice bearing transplantable tumors. Survival or tumor size were measured and the results are expressed as the measurement made in the treated group (T) divided by the measurement made in the vehicle treated control group (C). The tumor model used in this assay is B16 Melanoma (intracerebral) in B6D2F1 (BDF1) mice

[1] = dose: 12.5 mg/kg/injection, schedule: Q01DX009 (ip), vehicle: saline
[2] = dose: 1.0 mg/kg/injection, schedule: Q01DX009 (ip), vehicle: saline
[3] = dose: 2.0 mg/kg/injection, schedule: Q01DX009 (ip), vehicle: saline
[4] = dose: 8.0 mg/kg/injection, schedule: Q01DX009 (ip), vehicle: saline
[5] = dose: 8.0 mg/kg/injection, schedule: Q01DX009 (ip), vehicle: saline with Tween-80
[6] = dose: 16.0 mg/kg/injection, schedule: Q01DX009 (ip), vehicle: saline with Tween-80
[7] = dose: 17.8 mg/kg/injection, schedule: Q01DX001 (ip), vehicle: Klucel (hydroxypropylcellulose) (HPC)
[8] = dose: 26.7 mg/kg/injection, schedule: Q01DX001 (ip), vehicle: Klucel (hydroxypropylcellulose) (HPC)

Q: O=P1(N(CCCl)CCCl)NCCCO1 (configuration not stated) was tested. Which T/C [1] did it give?
A: 116 % of control and 92 % of control

Q: And the T/C (dose: 12.5 mg/kg/injection, schedule: Q01DX009 (ip), vehicle: water)?
A: 108 % of control

Q: And the T/C (dose: 25.0 mg/kg/injection, schedule: Q01DX009 (ip), vehicle: saline)?
A: 100 % of control and 108 % of control

Q: And the T/C (dose: 25.0 mg/kg/injection, schedule: Q01DX009 (ip), vehicle: water)?
A: 116 % of control

Q: And the T/C (dose: 50.0 mg/kg/injection, schedule: Q01DX009 (ip), vehicle: saline)?
A: 120 % of control and 121 % of control

Q: What about the T/C (dose: 100.0 mg/kg/injection, schedule: Q01DX009 (ip), vehicle: saline) of the same compound?
A: 95 % of control

Q: And the T/C (dose: 100.0 mg/kg/injection, schedule: Q01DX009 (ip), vehicle: water)?
A: 104 % of control

Q: Which T/C (dose: 0.5 mg/kg/injection, schedule: Q01DX009 (ip), vehicle: saline) does the source give for O=NN(CCCl)C(=O)NCCCl here?
A: 104 % of control and 112 % of control

Q: And the T/C [2]?
A: 109 % of control and 113 % of control

Q: What about the T/C (dose: 1.87 mg/kg/injection, schedule: Q01DX009 (ip), vehicle: saline) of the same compound?
A: 120 % of control

Q: And the T/C [3]?
A: 111 % of control and 112 % of control

Q: And the T/C (dose: 2.5 mg/kg/injection, schedule: Q04DX003 (ip), vehicle: saline sonified)?
A: 108 % of control

Q: And the T/C (dose: 3.8 mg/kg/injection, schedule: Q01DX009 (ip), vehicle: saline)?
A: 108 % of control

Q: What about the T/C (dose: 5.0 mg/kg/injection, schedule: Q01DX009 (ip), vehicle: other) of the same compound?
A: 158 % of control

Q: What about the T/C (dose: 7.5 mg/kg/injection, schedule: Q01DX009 (ip), vehicle: saline) of the same compound?
A: 150 % of control

Q: What about the T/C [4] of the same compound?
A: 172 % of control and 188 % of control

Q: What about the T/C (dose: 10.0 mg/kg/injection, schedule: Q04DX003 (ip), vehicle: saline sonified) of the same compound?
A: 175 % of control

Q: What about the T/C (dose: 15.0 mg/kg/injection, schedule: Q01DX009 (ip), vehicle: saline) of the same compound?
A: 91 % of control and 108 % of control

Q: How did the T/C (dose: 3.5 mg/kg/injection, schedule: Q01DX009 (ip), vehicle: saline) turn out when NC(C/[N+]([O-])=N/O)C(=O)O (configuration not stated) was run?
A: 97 % of control

Q: And the T/C (dose: 7.0 mg/kg/injection, schedule: Q01DX009 (ip), vehicle: saline)?
A: 87 % of control

Q: What about the T/C (dose: 12.5 mg/kg/injection, schedule: Q01DX009 (ip), vehicle: Klucel (hydroxypropylcellulose) (HPC)) of the same compound?
A: 107 % of control

Q: What about the T/C (dose: 14.0 mg/kg/injection, schedule: Q01DX009 (ip), vehicle: saline) of the same compound?
A: 89 % of control

Q: What about the T/C (dose: 25.0 mg/kg/injection, schedule: Q01DX009 (ip), vehicle: Klucel (hydroxypropylcellulose) (HPC)) of the same compound?
A: 100 % of control

Q: And the T/C (dose: 56.25 mg/kg/injection, schedule: Q01DX009 (ip), vehicle: saline)?
A: 101 % of control

Q: Which T/C (dose: 0.5 mg/kg/injection, schedule: Q01DX009 (ip), vehicle: distilled water + Tween-80) does the source give for COc1cc(NS(C)(=O)=O)ccc1Nc1c2ccccc2nc2ccccc12 here?
A: 88 % of control

Q: What about the T/C (dose: 1.0 mg/kg/injection, schedule: Q01DX009 (ip), vehicle: distilled water + Tween-80) of the same compound?
A: 116 % of control

Q: And the T/C (dose: 2.0 mg/kg/injection, schedule: Q01DX009 (ip), vehicle: distilled water + Tween-80)?
A: 109 % of control

Q: What about the T/C (dose: 4.0 mg/kg/injection, schedule: Q01DX009 (ip), vehicle: distilled water + Tween-80) of the same compound?
A: 101 % of control

Q: And the T/C (dose: 5.0 mg/kg/injection, schedule: Q04DX003 (ip), vehicle: Klucel (hydroxypropylcellulose) (HPC))?
A: 94 % of control

Q: What about the T/C (dose: 5.0 mg/kg/injection, schedule: Q04DX003 (ip), vehicle: saline) of the same compound?
A: 108 % of control

Q: What about the T/C (dose: 8.0 mg/kg/injection, schedule: Q01DX009 (ip), vehicle: distilled water + Tween-80) of the same compound?
A: 97 % of control

Q: What about the T/C (dose: 10.0 mg/kg/injection, schedule: Q04DX003 (ip), vehicle: saline) of the same compound?
A: 112 % of control

Q: CS(C)=O was tested. Which T/C (dose: 1000.0 mg/kg/injection, schedule: Q01DX005 (ip), vehicle: saline) did it give?
A: 103 % of control

Q: What about the T/C (dose: 2000.0 mg/kg/injection, schedule: Q01DX005 (ip), vehicle: saline) of the same compound?
A: 97 % of control and 100 % of control and 108 % of control

Q: What about the T/C (dose: 4000.0 mg/kg/injection, schedule: Q01DX005 (ip), vehicle: saline) of the same compound?
A: 101 % of control and 109 % of control and 114 % of control

Q: What does the source list for CC(=O)OCC1C(=O)OCC1C(=O)N1Cc2cc3ccccc3nc2C1 (configuration not stated)?
A: T/C [5]: 111 % of control; T/C [6]: 99 % of control; T/C (dose: 32.0 mg/kg/injection, schedule: Q01DX009 (ip), vehicle: saline with Tween-80): 103 % of control; T/C (dose: 64.0 mg/kg/injection, schedule: Q01DX009 (ip), vehicle: saline with Tween-80): 95 % of control; T/C (dose: 128.0 mg/kg/injection, schedule: Q01DX009 (ip), vehicle: saline with Tween-80): 93 % of control

Q: What does the source list for C#CCN(C)/N=N/c1nc[nH]c1C(N)=O?
A: T/C (dose: 16.0 mg/kg/injection, schedule: Q01DX005 (ip), vehicle: saline with Tween-80): 107 % of control; T/C (dose: 32.0 mg/kg/injection, schedule: Q01DX005 (ip), vehicle: saline with Tween-80): 104 % of control; T/C (dose: 64.0 mg/kg/injection, schedule: Q01DX005 (ip), vehicle: saline with Tween-80): 110 % of control; T/C (dose: 128.0 mg/kg/injection, schedule: Q01DX005 (ip), vehicle: saline with Tween-80): 109 % of control; T/C (dose: 256.0 mg/kg/injection, schedule: Q01DX005 (ip), vehicle: saline with Tween-80): 100 % of control

Q: With CN(C)N=Nc1ccc2c(c1)N(C)c1ccc(F)cc1S2 as the compound, how does the T/C (dose: 6.25 mg/kg/injection, schedule: Q01DX009 (ip), vehicle: other) read?
A: 90 % of control

Q: And the T/C (dose: 12.5 mg/kg/injection, schedule: Q01DX009 (ip), vehicle: other)?
A: 105 % of control

Q: And the T/C (dose: 25.0 mg/kg/injection, schedule: Q01DX009 (ip), vehicle: other)?
A: 112 % of control

Q: What about the T/C (dose: 50.0 mg/kg/injection, schedule: Q01DX009 (ip), vehicle: other) of the same compound?
A: 105 % of control

Q: And the T/C (dose: 100.0 mg/kg/injection, schedule: Q01DX009 (ip), vehicle: other)?
A: 112 % of control

Q: CNc1nc(N(C)C)nc(N(C)C)n1 was tested. Which T/C [1] did it give?
A: 102 % of control and 106 % of control

Q: C[C@]1(O)CC[C@H]2[C@@H]3CCC4=CC(=O)CC[C@]4(C)[C@@]3(F)[C@@H](O)C[C@@]21C was tested. Which T/C (dose: 8.0 mg/kg/injection, schedule: Q01DX009 (ip), vehicle: Klucel (hydroxypropylcellulose) (HPC)) did it give?
A: 115 % of control

Q: And the T/C (dose: 64.0 mg/kg/injection, schedule: Q01DX009 (ip), vehicle: Klucel (hydroxypropylcellulose) (HPC))?
A: 111 % of control

Q: And the T/C (dose: 128.0 mg/kg/injection, schedule: Q01DX009 (ip), vehicle: Klucel (hydroxypropylcellulose) (HPC))?
A: 111 % of control

Q: What about the T/C (dose: 256.0 mg/kg/injection, schedule: Q01DX009 (ip), vehicle: Klucel (hydroxypropylcellulose) (HPC)) of the same compound?
A: 95 % of control

Q: Which T/C (dose: 0.5 mg/kg/injection, schedule: Q01DX009 (ip), vehicle: saline with Tween-80) does the source give for O=NN(CCCl)C(=O)NC1CCC(=O)NC1=O (configuration not stated) here?
A: 108 % of control

Q: What about the T/C (dose: 2.0 mg/kg/injection, schedule: Q01DX009 (ip), vehicle: saline with Tween-80) of the same compound?
A: 153 % of control

Q: What about the T/C (dose: 4.0 mg/kg/injection, schedule: Q01DX009 (ip), vehicle: saline with Tween-80) of the same compound?
A: 202 % of control

Q: What about the T/C (dose: 4.32 mg/kg/injection, schedule: Q01DX001 (ip), vehicle: Klucel (hydroxypropylcellulose) (HPC)) of the same compound?
A: 111 % of control

Q: And the T/C (dose: 6.48 mg/kg/injection, schedule: Q01DX001 (ip), vehicle: other)?
A: 120 % of control

Q: And the T/C (dose: 7.2 mg/kg/injection, schedule: Q01DX001 (ip), vehicle: Klucel (hydroxypropylcellulose) (HPC))?
A: 122 % of control

Q: And the T/C [5]?
A: 337 % of control

Q: What about the T/C (dose: 11.9 mg/kg/injection, schedule: Q01DX001 (ip), vehicle: Klucel (hydroxypropylcellulose) (HPC)) of the same compound?
A: 172 % of control

Q: And the T/C (dose: 12.0 mg/kg/injection, schedule: Q01DX001 (ip), vehicle: Klucel (hydroxypropylcellulose) (HPC))?
A: 150 % of control

Q: And the T/C [6]?
A: 89 % of control

Q: And the T/C [7]?
A: 201 % of control

Q: And the T/C (dose: 18.0 mg/kg/injection, schedule: Q01DX001 (ip), vehicle: other)?
A: 338 % of control

Q: What about the T/C (dose: 20.0 mg/kg/injection, schedule: Q01DX001 (ip), vehicle: Klucel (hydroxypropylcellulose) (HPC)) of the same compound?
A: 204 % of control

Q: What about the T/C [8] of the same compound?
A: 187 % of control

Q: And the T/C (dose: 40.0 mg/kg/injection, schedule: Q01DX001 (ip), vehicle: Klucel (hydroxypropylcellulose) (HPC))?
A: 120 % of control

Q: O=CC(NC(=O)N(CCCl)N=O)C(O)C(O)C(O)CO (configuration not stated) was tested. Which T/C [2] did it give?
A: 97 % of control

Q: What about the T/C [3] of the same compound?
A: 99 % of control

Q: What about the T/C (dose: 4.0 mg/kg/injection, schedule: Q01DX009 (ip), vehicle: saline) of the same compound?
A: 111 % of control

Q: What about the T/C (dose: 7.5 mg/kg/injection, schedule: Q01DX001 (ip), vehicle: saline with Tween-80) of the same compound?
A: 92 % of control

Q: What about the T/C [4] of the same compound?
A: 117 % of control

Q: What about the T/C (dose: 15.0 mg/kg/injection, schedule: Q01DX001 (ip), vehicle: saline with Tween-80) of the same compound?
A: 119 % of control

Q: And the T/C [7]?
A: 120 % of control

Q: And the T/C [8]?
A: 118 % of control

Q: What about the T/C (dose: 30.0 mg/kg/injection, schedule: Q01DX001 (ip), vehicle: saline with Tween-80) of the same compound?
A: 103 % of control

Q: For CC[n+]1c(-c2ccccc2)c2cc(N)ccc2c2ccc(N)cc21, which T/C (dose: 6.0 mg/kg/injection, schedule: Q01DX005 (ip), vehicle: saline) is on record?
A: 95 % of control

Q: What about the T/C (dose: 12.0 mg/kg/injection, schedule: Q01DX005 (ip), vehicle: saline) of the same compound?
A: 104 % of control and 105 % of control and 109 % of control

Q: What about the T/C (dose: 24.0 mg/kg/injection, schedule: Q01DX005 (ip), vehicle: saline) of the same compound?
A: 105 % of control
